Series [1] concerns the target steroid 5α-reductase. Description: in vitro steroid 5α-reductase inhibitory activity using ventral prostate tissue from male rats. As to conditions: rat ventral prostate particulate; [3H]-testosterone substrate, pH 6.5, 37° C., 30 minutes. It is filed as biochemical. An excerpt: The compounds of the formula (I) may be tested in vitro for steroid 5α-reductase inhibitory activity using prostate tissue from rats or humans as follows:
(i) The compounds of the formula (I) may be tested for their potency in inhibiting rat steroid 5α-reductase using ventral prostate tissue from male rats. In determining inhibitory potency against rat prostatic 5α-reductase the following procedure was employed:
Rat prostates were minced into small pieces. The tissue was homogenised in Buffer A (20 mM sodium phosphate, pH 6.5, buffer containing 0.32M sucrose and 1 mM dithiothreitol) with a Brinkman Polytron (Kinematica, Luzern, GmBH), and then homogenised with a motor driven (1000 rpm) Potter Elvehjem (teflon-to-glass) homogeniser. Prostate particles were obtained by centrifugation at 105,000 G for 60 minutes. The pellet was washed in 4 volumes of Buffer A and recentrifuged at 105,000 G. The resulting pellet was dispersed in Buffer A (1 ml per g of prostate tissue originally used) with a motor driven Potter Elvehjem homogeniser as described above. The particulate suspension was stored as 1 ml samples at -70° C.
The following components, dissolved in Buffer B (40 mM sodium phosphate buffer, pH 6.5), were added to test tubes: 500 μl of [^3 H]-testosterone (1 μCi, 1 nmol; Du Pont, NEN Research Products, Stevenage, U.K.), 100 μl of 0.5 mM NADPH, a compound of the formula (I) dissolved in 5 μl of dimethyl sulphoxide, and Buffer B to give a final reaction volume of 1 ml. The mixture was warmed to 37° C. and the reaction started by addition of an aliquot of prostate particulate suspension. The reaction mixture was incubated at 37° C. for 30 minutes and then quenched by addition with vigorous mixing of 2 ml of ethyl acetate containing 20 μg each of testosterone and 5α-dihydrotestosterone as carriers. The aqueous and organic layers were separated by centrifugation at 2000 G for 10 minutes. The organic layer was transferred to a second test tube and evaporated to dryness under nitrogen. The residue was dissolved in 50-80 μl of absolute ethanol and spotted onto a silica gel 60 F254 TLC plate (E. Merck, Darmstadt, Germany) and developed in chloroform:acetone (185:15).
The radiochemical content in the bands of the substrate (testosterone) and the product (5α-dihydrotestosterone) were determined with a RITA Radio TLC Analyser (Raytest Instruments Ltd., Sheffield, U.K.). The percent of recovered radiolabel converted to 5α-dihydrotestosterone was calculated and used to determine enzyme activity. All incubations were conducted so that no more than 15% of substrate (testosterone) was converted to product.
The experimentally obtained data for a range of inhibitor concentrations was computer fitted to a sigmoidal dose-response curve and concentrations of compound giving 50% inhibition of 5α-reductase activity (IC50 's) were calculated using a SIGFIT program (De Lean, A., Munson, P. J. and Rodbard, D., American Journal of Physiology, 235, E97 (1978)).
A selection of compounds of the formula (I) was tested in vitro for steroid 5α-reductase inhibitory activity using ventral prostate tissue from male rats according to the procedure outlined on pages 35 to 37 of the description.

The subject of series [2] is mice. In words: Toxicity Study, oral administration to mice. As to conditions: up to a dose of 1000 mg/kg, throughout the duration of the study. It is filed as in vivo.

Structures are written as SMILES.

This is an account of results in US5767139A, “Indoles which have steroid 5-α reductase inhibitory activity” (Pfizer, Inc., priority 1992, dated 1998).

What is called IC50 is the concentration needed to halve the response being measured. The low end stands for higher potency, the high end for lower potency. In series [1], `CC(C)Cc1ccc(C2(C)Oc3ccc(C(=O)c4cn(CCCC(=O)O)c5ccccc45)cc3O2)cc1` (racemic) [Example 2, 4-[3-([2-methyl-2-(4-[2-methylpropyl]phenyl)-1,3-benzodioxolan-5-yl]carbonyl)indol-1-yl]butanoic acid] came in with an IC50 of 11.4 nM.

For the compound `CC(C)Cc1ccc(C2(C)Oc3ccc(C(=O)c4cn(CCCC(=O)O)c5ccccc45)cc3O2)cc1` (single isomer, unassigned; (-)) [Example 4, (-)-4-[3-([2-methyl-2-(4-[2-methylpropyl]phenyl)-1,3-benzodioxolan-5-yl]carbonyl)indol-1-yl]butanoic acid], the half-inhibitory concentration (IC50) in series [1] is 10.3 nM. Besides, the appearance and behaviour result in series [2] is “normal appearance and behaviour”. In the case of `O=C(O)CCCn1cc(C(=O)c2ccc3c(c2)OC(c2ccccc2)(c2ccccc2)O3)c2ccccc21` [Example 1], in series [1], the IC50 is 2.7 nM. Still for that read-out and setting: the same measure for `CCCc1ccc(C2(c3ccc(CCC)cc3)Oc3ccc(C(=O)c4cn(CCCC(=O)O)c5ccccc45)cc3O2)cc1` [Example 5]: 33.7 nM; for `O=C(O)CCCn1cc(C(=O)c2ccc3c(c2)OC(c2ccc(Cl)cc2)(c2ccc(Cl)cc2)O3)c2ccccc21` [Example 6]: 15.6 nM; for `O=C(O)CCCn1cc(C(=O)c2ccc3c(c2)OC(c2ccc(F)cc2)(c2ccc(F)cc2)O3)c2ccccc21` [Example 7]: 10.7 nM.

Regarding `CCCCC1(c2ccc(CCC)cc2)Oc2ccc(C(=O)c3cn(CCCC(=O)O)c4ccccc34)cc2O1` (centres unmarked) [Example 8], the midpoint of inhibition in series [1], the IC50, lay at 2.9 nM. On the same count and under the same terms, the same measure for `CC1(c2ccc(OCc3ccccc3)cc2)Oc2ccc(C(=O)c3cn(CCCC(=O)O)c4ccccc34)cc2O1` (centres unmarked) [Example 9]: 67.5 nM.

On to `O=C(O)CCCn1cc(C(=O)c2ccc3c(c2)OC2(CCCc4ccccc42)O3)c2ccccc21` (centres unmarked) [Example 10], for which, in series [1], the midpoint of inhibition, the IC50, lay at 7.91 nM. Same read-out and setting: the same measure for `CC1(c2ccccc2)Oc2ccc(C(=O)c3cn(CCCC(=O)O)c4ccccc34)cc2O1` (centres unmarked) [Example 14]: 21.1 nM; for `O=C(O)CCCn1cc(C(=O)c2ccc3c(c2)OC(c2cccs2)(c2cccs2)O3)c2ccccc21` [Example 15]: 5.29 nM; for `CC1(C2CCCCC2)Oc2ccc(C(=O)c3cn(CCCC(=O)O)c4ccccc34)cc2O1` (centres unmarked) [Example 19]: 11 nM. Still for that read-out and setting: the same measure for `CCCc1ccc(C2(CC)Oc3ccc(C(=O)c4cn(CCCC(=O)O)c5ccccc45)cc3O2)cc1` (centres unmarked) [Example 27]: 1.41 nM. Still for that read-out and setting: the same measure for `COc1ccc(C2(C)Oc3ccc(C(=O)c4cn(CCCC(=O)O)c5ccccc45)cc3O2)cc1` (centres unmarked) [Example 29]: 3.67 nM; for `O=C(O)CCCn1cc(C(=O)c2ccc3c(c2)OC2(CCC(c4ccccc4)C2)O3)c2ccccc21` (centres unmarked) [Example 31]: 5.56 nM.

Turning to `O=C(O)CCCCn1cc(C(=O)c2ccc3c(c2)OC(c2ccccc2)(c2ccccc2)O3)c2ccccc21` [Example 34], it took 264 nM to reach half-maximal inhibition in series [1] (IC50). Same read-out and setting: the same measure for `O=C(O)CCCn1cc(C(=O)Cc2ccc3c(c2)OC(c2ccccc2)(c2ccccc2)O3)c2ccccc21` [Example 35]: 42.6 nM.

`CC(C)Cc1ccc(C2(C)Oc3ccc(CC(=O)c4cn(CCCC(=O)O)c5ccccc45)cc3O2)cc1` (centres unmarked) [Example 36] yielded a half-maximal inhibitory concentration (IC50) in series [1] of 251 nM. Still for that read-out and setting: the same measure for `O=C(O)CCCn1cc(C(=O)Cc2ccc3c(c2)OC(c2ccc(Cl)cc2)(c2ccc(Cl)cc2)O3)c2ccccc21` [Example 37]: 100 nM; for `Cc1c(C(=O)c2ccc3c(c2)OC(c2ccccc2)(c2ccccc2)O3)c2ccccc2n1CCCC(=O)O` [Example 39]: 270 nM; for `Cc1c(C(=O)c2ccc3c(c2)OC(C)(c2ccc(CC(C)C)cc2)O3)c2ccccc2n1CCCC(=O)O` (centres unmarked) [Example 40]: 260 nM. In series [1], `CCCc1ccc(C2(c3ccc(OC)cc3)Oc3ccc(C(=O)c4cn(CCCC(=O)O)c5ccccc45)cc3O2)cc1` (centres unmarked) [Example 45] displayed an IC50 of 7.84 nM.
